{"source": "paper PMC6437269", "about": "“OXA-48-Mediated Ceftazidime-Avibactam Resistance Is Associated with Evolutionary Trade-Offs” (mSphere, 2019)", "key": {"OXA-48:P68A": {"biological_target": "OXA-48:P68A (Klebsiella pneumoniae, UniProt Q6XEC0, P68A)", "sequence (Q6XEC0 23-265 P68A)": "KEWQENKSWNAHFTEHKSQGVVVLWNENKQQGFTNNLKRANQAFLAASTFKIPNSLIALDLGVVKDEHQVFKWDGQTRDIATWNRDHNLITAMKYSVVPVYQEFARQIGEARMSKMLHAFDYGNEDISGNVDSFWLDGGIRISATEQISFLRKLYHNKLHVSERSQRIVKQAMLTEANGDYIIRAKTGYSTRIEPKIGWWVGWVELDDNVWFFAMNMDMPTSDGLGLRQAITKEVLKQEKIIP", "test": "IC50 with nitrocefin as reporter substrate, OXA-48:P68A", "format": "biochemical"}, "OXA-48": {"biological_target": "T1, OXA-48 (Klebsiella pneumoniae, UniProt Q6XEC0)", "T1 construct": "made in house", "T1 sequence (Q6XEC0 23-265 limits assumed)": "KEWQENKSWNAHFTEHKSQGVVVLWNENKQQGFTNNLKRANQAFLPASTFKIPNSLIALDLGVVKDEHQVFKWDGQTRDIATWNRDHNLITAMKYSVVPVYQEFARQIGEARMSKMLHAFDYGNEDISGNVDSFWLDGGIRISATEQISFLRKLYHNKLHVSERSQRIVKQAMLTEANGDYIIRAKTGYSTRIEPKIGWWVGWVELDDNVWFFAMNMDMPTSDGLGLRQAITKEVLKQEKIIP", "test": "biochemical", "conditions": "nitrocefin reporter substrate; enzyme and inhibitor incubated 5 min; error = 95% CI"}}, "data": [{"smiles": "C[C@]1(Cn2ccnn2)[C@H](C(=O)O)N2C(=O)C[C@H]2S1(=O)=O", "note": "[Tazobactam, tazobactam]", "values": [{"measurement": "reduction in the IC50", "setting": "OXA-48:P68A; P68A compared to native OXA-48, 5 min", "result": "> 20", "unit": "fold"}, {"measurement": "IC50", "setting": "OXA-48:P68A; nitrocefin reporter substrate, enzyme and inhibitor incubated 5 min, error = 95% CI", "result": "4 ± 1", "unit": "µM"}, {"measurement": "IC50", "setting": "OXA-48", "result": "95 ± 9", "unit": "µM"}]}]}
